Patent publication US12703870B2, “Regulation of root development” (UT-Battelle, LLC, priority 2023, dated 2026)

System: adventitious root formation in control and PtrXB38-OE micro-cuttings
Assay: Adventitious root formation of micro-propagated cuttings in ½ MS medium with chemical treatment
Assay type: in vivo, P. tremula×P. alba ‘INRA 717-1B4’
Procedure: Plant Growth Conditions: The tissue culture plants were maintained in ½ MS media (½ MS basal salts, 20 g/L sucrose, 1× Gamborg's B5 vitamin mixture, 0.3% Gelzan) supplemented with 0.1 mg/L IBA and grown in growth chambers (16 h:8 h, light:dark) with white fluorescent light (100 μmol m^−2 s^−1) at 22° C. To assess adventitious root development phenotype, 2-3 cm length of shoot tops from 1-month-old tissue culture saplings were excised and placed in fresh medium for root induction. Root number was counted 12 days after subculture. For chemical treatment, filter-sterilized auxin transport inhibitor naphthylphthalamic acid (NPA) and ethylene biosynthesis inhibitor aminoethoxyvinylglycine (AVG) were added in the ½ MS medium.

Compound: O=C(O)c1ccccc1C(=O)Nc1cccc2ccccc12 [NPA, naphthylphthalamic acid]
- root formation (5 μM NPA, both control and PtrXB38-OE micro-cuttings): completely blocked root formation
- promotive effect of PtrXB38 on AR formation (adventitious root number) (increasing NPA concentrations (0.2 μM and 1 μM, FIG. 3D), PtrXB38-OE plants): gradually attenuated
